Results as given in US6898533B1, “Methods for predicting the biological, chemical, and physical properties of molecules from their spectral properties” (The United States of America as represented by the …, priority 2000, dated 2005).
Like-named read-outs stand apart in the source and are kept apart here.

How the values were obtained:
[1] = quantum yield for photosensitized production of singlet oxygen; assay type: physicochemical
Description: Phototosensitized oxidations involving singlet oxygen, a strong oxidant, are implicated in photodynamic inactivation of viruses and cells, in phototherapy for cancer, in photocarcinogenesis and in photodegradation of dyes and polymers. Quenching of excited singlet and triplet states of many substances by ground state molecular oxygen produces singlet oxygen; the lowest electronically excited singlet state of molecular oxygen. A compilation of the quantum yields for the formation of singlet oxygen in fluid solutions for over 700 substances is available from the Notre Dame Radiation Laboratory—Radiation Chemistry Data Center.
The compounds are divided into two endpoint classes based upon having a high quantum yield for production of singlet oxygen (H, QY>0.50) or a low quantum yield for production of singlet oxygen (L, QY<0.50).

[2] = formation of singlet oxygen in fluid solutions; cited from earlier work
[3] = system: estrogen receptor; settings: 107-compound training set; cited from earlier work
[4] = system: estrogen receptor; experiment: estrogen receptor relative binding affinity, expanded training set of 107 compounds; settings: input class, 107-compound training set
Description: The training set included weak estrogen receptor binders in addition to strong and medium estrogen receptor binders.
For this model, strong estrogen receptor binders were defined as having log(RBA)>−0.25 and weak estrogen receptor binders were defined as having log(RBA)<−3.0. Medium estrogen receptor binders were defined as having log(RBA) in between.

[5] = system: estrogen receptor; experiment: estrogen receptor binding class of the 30-compound training set
Description: Two Spectral Data-Activity Relationship (SDAR) models were established, based on ^13C NMR and EI MS spectra, for 30 estrogenic chemicals whose relative binding affinities (RBA) for the alpha (ERα) and beta (ERβ) estrogen receptors are available.
Strong binders to the estrogen receptor were classified as having a log (RBA) over 0.0, and medium binders to the estrogen receptor were classified as having a log (RBA) of less than or equal to 0.0.

[6] = target: beta (ERβ) estrogen receptor (Rattus norvegicus, UniProt Q62986); settings: cited from earlier work
[7] = class from singlet oxygen quantum yield
[8] = SDAR training input endpoint class, 30 compounds
[9] = log of relative binding affinity, 17-β-estradiol RBA = 100

Sequence of beta (ERβ) estrogen receptor (Q62986 whole entry): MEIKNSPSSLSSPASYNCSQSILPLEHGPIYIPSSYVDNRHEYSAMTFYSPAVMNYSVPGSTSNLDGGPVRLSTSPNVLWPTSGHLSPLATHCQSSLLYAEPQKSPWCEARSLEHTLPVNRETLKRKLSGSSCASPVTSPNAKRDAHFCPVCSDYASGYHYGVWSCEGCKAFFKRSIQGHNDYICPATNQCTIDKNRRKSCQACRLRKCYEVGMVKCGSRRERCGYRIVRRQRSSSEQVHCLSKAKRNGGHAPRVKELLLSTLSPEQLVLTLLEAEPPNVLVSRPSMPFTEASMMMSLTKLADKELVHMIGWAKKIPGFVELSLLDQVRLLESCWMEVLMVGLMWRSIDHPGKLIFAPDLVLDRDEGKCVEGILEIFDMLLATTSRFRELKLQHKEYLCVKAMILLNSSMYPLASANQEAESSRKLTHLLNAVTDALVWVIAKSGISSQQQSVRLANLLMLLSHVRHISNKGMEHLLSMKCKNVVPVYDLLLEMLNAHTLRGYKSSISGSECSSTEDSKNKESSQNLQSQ

In the case of `c1ccc(-c2oc(-c3ccccc3)c3ccccc23)cc1` [1,3-Diphenylisobenzofuran], the “Endpoint Class” value [1, 7] is given as “L (low quantum yield for production of singlet oxygen (L, QY<0.50))” and the “Quantum Yield” value [2] is given as 0.26.

In the case of `Cn1ccc2ccccc21` [1-Methylindole], the “Endpoint Class” value [1, 7] is listed as “L (low quantum yield for production of singlet oxygen (L, QY<0.50))” and the “Quantum Yield” value [2] is listed as 0.35.

For `Oc1ccc(OCc2ccccc2)cc1` [4-Benzyloxyphenol], the “log RBA” value [3] is listed as −3.44 and the Class [4] is listed as “W (weak estrogen receptor binders were defined as having log(RBA)<−3.0)”.

For `CCCCCCCCCc1ccc(O)cc1` [4-Nonylphenol], the “log RBA” value [3] is listed as −1.45 and the Class [4] is listed as “M (Medium estrogen receptor binders were defined as having log(RBA) in between)”.

In the case of `CC/C(=C(\c1ccc(O)cc1)c1ccc(OCCN(C)C)cc1)c1ccccc1` [4-OH-Tamoxifen], the “log RBA” value [3] is given as 2.24 and the Class [4] is given as “S (strong estrogen receptor binders were defined as having log(RBA)>−0.25)”.

For `O=C1c2ccccc2C(=O)c2ccccc21` [9,10-Anthraquinone], the “Endpoint Class” value [1, 7] is given as “L (low quantum yield for production of singlet oxygen (L, QY<0.50))” and the “Quantum Yield” value [2] is given as 0.15.

In the case of `C[C@]12CC[C@@H]3c4ccc(O)cc4CC[C@H]3[C@@H]1CC[C@H]2O` [17α-Estradiol], the “log RBA” value [3] is listed as 0.49, the “Class Input” value [5, 8] is listed as “S (Strong binders to the estrogen receptor were classified as having a log (RBA) over 0.0)” and the Class [4] is listed as “S (strong estrogen receptor binders were defined as having log(RBA)>−0.25)”.

For `C(=C\c1ccccc1)/c1ccccc1` [(E)-Stilbene], the “Endpoint Class” value [1, 7] is listed as “L (low quantum yield for production of singlet oxygen (L, QY<0.50))” and the “Quantum Yield” value [2] is listed as 0.08.

For `CC(=O)c1ccccc1` [Acetophenone], the “Endpoint Class” value [1, 7] is listed as “L (low quantum yield for production of singlet oxygen (L, QY<0.50))” and the “Quantum Yield” value [2] is listed as 0.29.

In the case of `c1ccc2nc3ccccc3cc2c1` [Acridine], the “Endpoint Class” value [1, 7] is listed as “H (high quantum yield for production of singlet oxygen (H, QY>0.50))” and the “Quantum Yield” value [2] is listed as 0.83.

In the case of `c1ccc2cc3ccccc3cc2c1` [Anthracene], the “Endpoint Class” value [1, 7] is listed as “H (high quantum yield for production of singlet oxygen (H, QY>0.50))” and the “Quantum Yield” value [2] is listed as 0.83.

In the case of `O=C1c2ccccc2Cc2ccccc21` [Anthrone], the “Endpoint Class” value [1, 7] is listed as “L (low quantum yield for production of singlet oxygen (L, QY<0.50))” and the “Quantum Yield” value [2] is listed as 0.25.

For `O=C1C=CC(=C(c2ccc(O)cc2)c2ccc(O)cc2)C=C1` [Aurin], the “log RBA” value [3] is given as −1.49 and the Class [4] is given as “M (Medium estrogen receptor binders were defined as having log(RBA) in between)”.

In the case of `Oc1ccc(Cc2ccc(O)cc2)cc1` [BIS (4-hydroxyphenyl)-methane], the “log RBA” value [3] is given as −3.02 and the Class [4] is given as “W (weak estrogen receptor binders were defined as having log(RBA)<−3.0)”.

With `O=C(C(=O)c1ccccc1)c1ccccc1` [Benzil] the “Endpoint Class” value [1, 7] was “H (high quantum yield for production of singlet oxygen (H, QY>0.50))”.

In the case of `O=C(c1ccccc1)c1ccccc1` [Benzophenone], the “Endpoint Class” value [1, 7] is listed as “L (low quantum yield for production of singlet oxygen (L, QY<0.50))” and the “Quantum Yield” value [2] is listed as 0.29.

For `CC(=O)C(C)=O` [Biacetyl], the “Endpoint Class” value [1, 7] is listed as “H (high quantum yield for production of singlet oxygen (H, QY>0.50))” and the “Quantum Yield” value [2] is listed as 0.57.

With `c1ccc(-c2ccccc2)cc1` [Biphenyl] the “Endpoint Class” value [1] was “H (key: high quantum yield for production of singlet oxygen (H, QY>0.50); low quantum yield for production of singlet oxygen (L, QY<0.50))”.

In the case of `CCC(C)(c1ccc(O)cc1)c1ccc(O)cc1` [Bisphenol B], the “log RBA” value [3] is given as −1.07 and the Class [4] is given as “M (Medium estrogen receptor binders were defined as having log(RBA) in between)”.

For `O=c1oc2cc(O)ccc2c2oc3cc(O)ccc3c12` [Coumestrol], the “Log-(RBA) beta” value [6, 9] is listed as 2.27.

For `Clc1ccc(C(c2ccccc2Cl)C(Cl)(Cl)Cl)cc1` (centres unmarked) [DDT-o,p′], the “log RBA” value [3] is given as −2.85 and the Class [4] is given as “W (weak estrogen receptor binders were defined as having log(RBA)<−3.0)”.

For `CC/C(=C(/CC)c1ccc(O)cc1)c1ccc(O)cc1` [Diethystibesterol], the “log RBA” value [3] is listed as 2.60, the “Class Input” value [5] is listed as “S (key: Strong binders to the estrogen receptor were classified as having a log (RBA) over 0.0; M: medium binders to the estrogen receptor were classified as having a log (RBA) of less than or equal to 0.0)” and the Class [4] is listed as “S (strong estrogen receptor binders were defined as having log(RBA)>−0.25)”. The “Log-(RBA) beta” value [6] was 2.47.

In the case of `C[C@]12CCC(=O)C[C@@H]1CC[C@@H]1[C@@H]2CC[C@]2(C)[C@@H](O)CC[C@@H]12` [Dihydrotestosterone], the “Class Input” value [5] is listed as “M (key: Strong binders to the estrogen receptor were classified as having a log (RBA) over 0.0; M: medium binders to the estrogen receptor were classified as having a log (RBA) of less than or equal to 0.0)” and the “Log-(RBA) beta” value [6] is listed as −0.77.

For `CC(CCC(=O)O)(c1ccc(O)cc1)c1ccc(O)cc1` [Diphenolic acid], the “log RBA” value [3] is listed as −3.13 and the Class [4] is listed as “W (weak estrogen receptor binders were defined as having log(RBA)<−3.0)”.

In the case of `C[C@]12CC[C@@H]3c4ccc(O)cc4[C@@H](O)C[C@H]3[C@@H]1CC[C@@H]2O` [Estra-1,3,5(10)-trien-3,6α,17β-triol], the “log RBA” value [3] is listed as −0.15 and the Class [4] is listed as “S (strong estrogen receptor binders were defined as having log(RBA)>−0.25)”.

For `C[C@@]12CCC[C@H]1[C@@H]1CCc3cc(O)ccc3[C@H]1CC2` [Estra-1,3,5(10)-trien-3-ol], the “log RBA” value [3] is listed as 1.14 and the Class [4] is listed as “S (strong estrogen receptor binders were defined as having log(RBA)>−0.25)”.

In the case of `C[C@]12CC[C@@H]3c4ccc(O)cc4CC[C@H]3[C@@H]1C[C@@H](O)[C@@H]2O` [Estriol], the “Log-(RBA) beta” value [6, 9] is listed as 1.32.

For `c1ccc2c(c1)Cc1ccccc1-2` [Flourene], the “Endpoint Class” value [1, 7] is listed as “H (high quantum yield for production of singlet oxygen (H, QY>0.50))” and the “Quantum Yield” value [2] is listed as 0.74.

For `O=c1c(-c2ccc(O)cc2)coc2cc(O)cc(O)c12` [Genistein], the “Class Input” value [5, 8] was “S (Strong binders to the estrogen receptor were classified as having a log (RBA) over 0.0)” and the Class [4] was “M (Medium estrogen receptor binders were defined as having log(RBA) in between)”.

For `CCCCN(C)C(=O)CCCCCCCCCC[C@@H]1Cc2cc(O)ccc2[C@H]2CC[C@]3(C)[C@@H](O)CC[C@H]3[C@H]12` [ICI 164,384], the “log RBA” value [3] is given as 1.16, the “Class Input” value [5, 8] is given as “S (Strong binders to the estrogen receptor were classified as having a log (RBA) over 0.0)” and the Class [4] is given as “S (strong estrogen receptor binders were defined as having log(RBA)>−0.25)”. The “Log-(RBA) beta” value [6, 9] was 2.22.

In the case of `C#C[C@]1(O)CC[C@H]2[C@@H]3CCc4cc(OC)ccc4[C@H]3CC[C@@]21C` [Mestranol], the RBA [3] is given as 035 and the Class [4] is given as “S (strong estrogen receptor binders were defined as having log(RBA)>−0.25)”.

In the case of `O=C1C=Cc2cccc3cccc1c23` [Phenalen-1-one], the “Endpoint Class” value [1, 7] is given as “H (high quantum yield for production of singlet oxygen (H, QY>0.50))” and the “Quantum Yield” value [2] is given as 0.94.

For `CC(C)(C)C(=S)c1ccccc1` [Pivalothiophenone], the “Endpoint Class” value [1, 7] is listed as “H (high quantum yield for production of singlet oxygen (H, QY>0.50))” and the “Quantum Yield” value [2] is listed as 1.0.

In the case of `O=c1ccc2cc3ccoc3cc2o1` [Psoralen], the “Endpoint Class” value [1, 7] is listed as “L (low quantum yield for production of singlet oxygen (L, QY<0.50))” and the “Quantum Yield” value [2] is listed as 0.0055.

In the case of `c1cc2ccc3cccc4ccc(c1)c2c34` [Pyrene], the “Endpoint Class” value [1, 7] is given as “H (high quantum yield for production of singlet oxygen (H, QY>0.50))” and the “Quantum Yield” value [2] is given as 0.71.

In the case of `CC/C(=C(\c1ccccc1)c1ccc(OCCN(C)C)cc1)c1ccccc1` [Tamoxifen], the “Class Input” value [5, 8] is reported as “S (Strong binders to the estrogen receptor were classified as having a log (RBA) over 0.0)” and the Class [4] is reported as “S (strong estrogen receptor binders were defined as having log(RBA)>−0.25)”.

In the case of `c1ccc2cc3cc4ccccc4cc3cc2c1` [Tetracene], the “Endpoint Class” value [1, 7] is given as “H (high quantum yield for production of singlet oxygen (H, QY>0.50))” and the “Quantum Yield” value [2] is given as 0.70.

For `C(=C(c1ccccc1)c1ccccc1)c1ccccc1` [Triphenylethylene], the “log RBA” value [3] is given as −2.78 and the Class [4] is given as “W (weak estrogen receptor binders were defined as having log(RBA)<−3.0)”.
